We go through three molecules from ChEMBL document CHEMBL3875185, “Structure-anticonvulsant activity studies in the group of (E)-N-cinnamoyl aminoalkanols derivatives monosubstituted in phenyl ring with 4-Cl, 4-CH3 or 2-CH3” (Bioorg Med Chem, 2017).

The subject of series [1] is Rattus norvegicus. As to the kind of experiment: Neurotoxicity in ip dosed Sprague-Dawley rat assessed as behavioral change by measuring time to peak effect. Type of series: toxicity, organism-based. As to conditions: in vivo.
For series [2], the system named is Rattus norvegicus. Briefly: Neurotoxicity in Sprague-Dawley rat assessed as behavioral change at 30 mg/kg, po measured at […] post dose. The conditions noted are these: in vivo. The format is toxicity, organism-based.
Series [3] has as its system Mus musculus. Briefly: Anticonvulsant activity in ip dosed pentylenetetrazole induced seizure mouse model assessed as no observable episode of clonic convulsion of at least 5 secs. The format is functional.
The nature of series [4]: Protection index, ratio of TD50 for neurotoxicity in ip dosed mouse to ED50 for ip dosed pentylenetetrazole induced seizure mouse model. The format is toxicity, organism-based. As to conditions: in vivo, read-out: Ratio TD50/ED50.
The target of series [5] is T1, Vasoactive intestinal polypeptide receptor 1 (Homo sapiens) (UniProt P32241).
T1 sequence (whole entry): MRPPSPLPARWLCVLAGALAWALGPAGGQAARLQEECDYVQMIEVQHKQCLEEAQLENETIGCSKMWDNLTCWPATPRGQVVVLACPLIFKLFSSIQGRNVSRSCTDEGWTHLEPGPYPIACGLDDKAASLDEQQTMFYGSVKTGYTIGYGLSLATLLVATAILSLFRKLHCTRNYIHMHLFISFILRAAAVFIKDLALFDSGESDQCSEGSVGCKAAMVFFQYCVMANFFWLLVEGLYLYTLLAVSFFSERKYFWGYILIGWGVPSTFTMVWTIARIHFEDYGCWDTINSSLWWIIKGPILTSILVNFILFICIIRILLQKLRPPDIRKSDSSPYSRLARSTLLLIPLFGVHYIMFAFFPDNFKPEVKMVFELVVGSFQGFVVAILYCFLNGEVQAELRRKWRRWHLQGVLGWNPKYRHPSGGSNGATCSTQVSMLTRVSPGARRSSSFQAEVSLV
Briefly: Displacement of [125I]VIP from human recombinant VPAC1 receptor expressed in CHO cells at 100 uM measured after 60 mins by scintillation counting method relative to control. Type of series: cell-based.

The species entered for series [6] is Rattus norvegicus. As to the kind of experiment: Displacement of [35S]dATPaS from rat cerebral cortex P2Y receptor at 100 uM measured after 60 mins by scintillation counting method relative to control. In general terms: Displacement assays read how much labelled ligand stays bound in the presence of the test substance.
The nature of series [7]: Neurotoxicity in ip dosed Sprague-Dawley rat assessed as behavioral change. The format is toxicity, organism-based. The conditions noted are these: in vivo.
The target of series [8] is Substance-P receptor (Homo sapiens) (UniProt P25103). As to the kind of experiment: Displacement of [125I]BH-SP from NK1 receptor in human U373MG cells at 100 uM measured after 30 mins by scintillation counting method relative to control. Type of series: cell-based. As to conditions: U-373MG ATCC.
The target in series [9] is T2, C-C chemokine receptor type 1 (Homo sapiens) (UniProt P32246).
T2 sequence (whole entry): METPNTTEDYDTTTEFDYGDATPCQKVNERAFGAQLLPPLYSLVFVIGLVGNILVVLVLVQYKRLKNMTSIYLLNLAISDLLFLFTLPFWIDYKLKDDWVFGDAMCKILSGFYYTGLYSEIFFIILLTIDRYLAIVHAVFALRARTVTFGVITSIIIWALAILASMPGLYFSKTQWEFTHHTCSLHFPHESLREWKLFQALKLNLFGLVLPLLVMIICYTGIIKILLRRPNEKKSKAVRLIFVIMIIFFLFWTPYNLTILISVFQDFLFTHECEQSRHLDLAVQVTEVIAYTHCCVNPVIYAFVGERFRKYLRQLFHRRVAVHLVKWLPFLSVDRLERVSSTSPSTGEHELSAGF
As to the kind of experiment: Displacement of [125I]MIP-1a from human recombinant CCR1 receptor expressed in HEK293 cells at 100 uM measured after 120 mins by scintillation counting method relative to control. The format is cell-based.

The subject of series [10] is Rattus norvegicus. As to the kind of experiment: Anticonvulsant activity in ip dosed maximal electroshock induced seizure Sprague-Dawley rat model assessed as suppression in hindlimb tonic extension. The format is functional. A general note: In the maximal electroshock model the usual endpoint is tonic extension of the hind limbs.
The species entered for series [11] is Rattus norvegicus. Briefly: Displacement of [35S]TBPS from rat cerebral cortex GABA-gated chloride channel at 100 uM measured after 60 mins by scintillation counting method relative to control.
Series [12] deals with D(1A) dopamine receptor (Homo sapiens) (UniProt P21728). As to the kind of experiment: Displacement of [3H]SCH 23390 from human recombinant dopamine D1 receptor expressed in CHO cells at 100 uM measured after 60 mins by scintillation counting method relative to control. Type of series: cell-based.
Series [13] has as its target T3, C-X-C chemokine receptor type 2 (Homo sapiens) (UniProt P25025).
T3 sequence (whole entry): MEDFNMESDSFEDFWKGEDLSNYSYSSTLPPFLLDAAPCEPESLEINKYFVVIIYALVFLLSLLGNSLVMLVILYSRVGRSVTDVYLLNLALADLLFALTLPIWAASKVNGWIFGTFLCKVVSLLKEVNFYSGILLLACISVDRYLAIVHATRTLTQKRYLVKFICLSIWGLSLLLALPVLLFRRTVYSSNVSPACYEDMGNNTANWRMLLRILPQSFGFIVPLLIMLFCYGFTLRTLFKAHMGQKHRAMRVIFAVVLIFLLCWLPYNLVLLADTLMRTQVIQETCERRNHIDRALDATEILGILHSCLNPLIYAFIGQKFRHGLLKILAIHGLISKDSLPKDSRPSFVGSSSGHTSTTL
As to the kind of experiment: Displacement of [125I]IL-8 from human recombinant CXCR2 expressed in HEK293 cells at 100 uM measured after 60 mins by scintillation counting method relative to control. Type of series: cell-based.

Series [14] deals with T4, Neuromedin-K receptor (Homo sapiens) (UniProt P29371).
T4 sequence (whole entry): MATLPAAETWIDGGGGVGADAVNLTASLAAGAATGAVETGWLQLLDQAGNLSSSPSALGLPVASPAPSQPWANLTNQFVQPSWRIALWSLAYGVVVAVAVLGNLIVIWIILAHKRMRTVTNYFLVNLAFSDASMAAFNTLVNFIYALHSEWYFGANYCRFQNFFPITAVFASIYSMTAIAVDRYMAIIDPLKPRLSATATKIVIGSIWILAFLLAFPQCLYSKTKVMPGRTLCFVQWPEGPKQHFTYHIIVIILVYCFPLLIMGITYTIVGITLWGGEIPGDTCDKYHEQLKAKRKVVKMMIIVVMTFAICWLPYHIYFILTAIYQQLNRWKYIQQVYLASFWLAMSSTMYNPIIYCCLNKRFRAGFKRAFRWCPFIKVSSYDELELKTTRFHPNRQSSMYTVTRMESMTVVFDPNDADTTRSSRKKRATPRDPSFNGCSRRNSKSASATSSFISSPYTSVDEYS
Briefly: Displacement of [3H]SR 142801 from human recombinant NK3 receptor expressed in CHO cells at 100 uM measured after 120 mins by scintillation counting method relative to control. Type of series: cell-based.

Series [15] relates to Rattus norvegicus. Briefly: Neurotoxicity in Sprague-Dawley rat assessed as behavioral change at 30 mg/kg, po measured at 4 hrs post dose. The format is toxicity, organism-based. The conditions noted are these: in vivo.
Series [16] deals with Mus musculus. Briefly: Anticonvulsant activity in ip dosed 6-Hz induced seizure mouse model assessed as restoration of normal activity within 10 secs from stimulation by measuring time to peak effect at 32 mA. Type of series: functional.
Series [17] concerns the target D(2) dopamine receptor (Homo sapiens) (UniProt P14416). As to the kind of experiment: Displacement of [3H]methyl-spiperone from human recombinant dopamine D2S receptor expressed in HEK293 cells at 100 uM measured after 60 mins by scintillation counting method relative to control. Type of series: cell-based.
For series [18], the species on record is Rattus norvegicus. Briefly: Displacement of [3H]batrachotoxinin from rat cerebral cortex sodium channel site 2 at 100 uM measured after 60 mins by scintillation counting method relative to control.

Chain of D(2) dopamine receptor (Homo sapiens) (P14416 whole entry): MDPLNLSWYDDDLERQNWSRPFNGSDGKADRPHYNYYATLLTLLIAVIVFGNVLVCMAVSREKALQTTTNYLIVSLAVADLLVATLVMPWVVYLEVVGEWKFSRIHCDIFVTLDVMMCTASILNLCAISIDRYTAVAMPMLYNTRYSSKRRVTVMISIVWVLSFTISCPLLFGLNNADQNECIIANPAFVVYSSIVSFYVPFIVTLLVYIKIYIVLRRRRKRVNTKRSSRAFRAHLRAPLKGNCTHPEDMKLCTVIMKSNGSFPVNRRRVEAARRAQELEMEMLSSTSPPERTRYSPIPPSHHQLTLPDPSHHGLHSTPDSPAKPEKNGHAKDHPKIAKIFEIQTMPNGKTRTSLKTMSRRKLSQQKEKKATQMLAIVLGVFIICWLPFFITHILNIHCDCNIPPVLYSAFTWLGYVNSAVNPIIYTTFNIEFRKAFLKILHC
Chain of Substance-P receptor (Homo sapiens) (P25103 whole entry): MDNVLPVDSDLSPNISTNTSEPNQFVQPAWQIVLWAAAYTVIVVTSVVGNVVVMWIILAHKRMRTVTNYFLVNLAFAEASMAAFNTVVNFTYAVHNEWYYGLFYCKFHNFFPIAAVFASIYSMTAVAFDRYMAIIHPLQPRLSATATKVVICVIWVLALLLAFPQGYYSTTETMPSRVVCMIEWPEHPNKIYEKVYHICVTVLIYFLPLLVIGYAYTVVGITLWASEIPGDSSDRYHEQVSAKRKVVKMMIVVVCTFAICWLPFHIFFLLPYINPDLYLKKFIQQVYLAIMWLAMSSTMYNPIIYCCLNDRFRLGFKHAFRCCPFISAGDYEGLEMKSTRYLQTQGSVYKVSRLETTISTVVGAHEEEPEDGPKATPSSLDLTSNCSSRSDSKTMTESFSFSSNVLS
Chain of D(1A) dopamine receptor (Homo sapiens) (P21728 whole entry): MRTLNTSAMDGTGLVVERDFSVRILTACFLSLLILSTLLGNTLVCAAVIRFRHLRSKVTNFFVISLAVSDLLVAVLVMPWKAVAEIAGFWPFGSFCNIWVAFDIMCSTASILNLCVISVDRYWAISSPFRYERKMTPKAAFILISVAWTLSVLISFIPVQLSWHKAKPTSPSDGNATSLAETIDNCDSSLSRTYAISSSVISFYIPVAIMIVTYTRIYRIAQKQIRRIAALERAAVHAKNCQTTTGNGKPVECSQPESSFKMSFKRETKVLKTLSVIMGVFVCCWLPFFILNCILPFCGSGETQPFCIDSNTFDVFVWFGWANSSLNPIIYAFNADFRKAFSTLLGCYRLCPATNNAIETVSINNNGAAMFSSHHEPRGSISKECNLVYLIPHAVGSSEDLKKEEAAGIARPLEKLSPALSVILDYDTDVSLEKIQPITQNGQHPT

In the case of `Cc1ccccc1/C=C/C(=O)N[C@@H](C)CO`, the values for the Time in the series on Rattus norvegicus [1] and in the series on Mus musculus [16] were 0.5 h and 0.25 h, respectively. In addition, the Activity entry in the series on Rattus norvegicus [2] and in the series with Rattus norvegicus [15] was “Non-Toxic” throughout. For the same molecule, the ED50 with Mus musculus [3] worked out at 58.4 mg/kg; in the series with Rattus norvegicus [10], 16.3 mg/kg. The selectivity ratio in [4] came to 2.57. For the same molecule, the inhibition is 2% in series [5]; -6.1% in the series filed under Rattus norvegicus [6]; -5.7% in [8]; -3.7% in series [9]; 17.7% in the series filed under Rattus norvegicus [11]; 7.2% in series [12]. Besides, the inhibition in [13] is 21.9%; in [14] it was -0.4%; in series [17], 5%; in the series filed under Rattus norvegicus [18], -2.3%. Further, the TD50 in [7] was 103 mg/kg.

For `CCC(CO)NC(=O)/C=C/c1ccc(Cl)cc1` (centres undefined), the Time in the series with Rattus norvegicus [1] is 1 h; with Mus musculus [16], 0.25 h. Further, the Activity entry in the series with Rattus norvegicus [2] and with Rattus norvegicus [15] was “Non-Toxic” each time. Further, the values for the ED50 in the series with Mus musculus [3] and with Rattus norvegicus [10] were 90.3 mg/kg and 21.2 mg/kg, respectively. Moreover, the selectivity ratio in series [4] is 2.18. The inhibition is 4.8% in [5]; 18.1% in the series filed under Rattus norvegicus [6]; 3% in [8]; -2.2% in series [9]; 37.2% in the series listed under Rattus norvegicus [11]; 18.5% in series [12]. Besides, the inhibition in series [13] is 27.1%; in series [14] it was 5.8%; in series [17], 1.8%; in the series filed under Rattus norvegicus [18], 28.4%. For the same molecule, the TD50 in series [7] is 79.5 mg/kg.

Take `CC(O)CNC(=O)/C=C/c1ccc(Cl)cc1` (centres undefined): the Time in the series with Rattus norvegicus [1] and in the series with Mus musculus [16] was 0.5 h each time. Further, the Activity result with Rattus norvegicus [2] and with Rattus norvegicus [15] was “Non-Toxic” in each case. Besides, the 50% effective dose (ED50) in the series on Mus musculus [3] stood at 102 mg/kg; in the series on Rattus norvegicus [10], 41.9 mg/kg. Further, the selectivity ratio in [4] is 1.76. For the same molecule, the inhibition in [5] was -0.4%; in the series listed under Rattus norvegicus [6], 15%; in [8], 3.1%; in series [9], -2%; in the series listed under Rattus norvegicus [11], 22.6%; in series [12], 14.9%. The inhibition was found to be 27% in series [13], 5.2% in [14], 8.7% in series [17] and 10.2% in the series filed under Rattus norvegicus [18]. Also, in [7], the TD50 came to 69.8 mg/kg.

By ED50 is commonly meant the dose at which the effect has come halfway, by size or by number of responders. As a reminder, the inhibition is the relative decrease from the control value, in per cent. The TD50 is the 50% point of the dose-response relation for the toxic effect studied.
